Data set [1] can be described thus: Cytotoxicity evaluation of the HCMV plaque reduction assay. Format: cell-based. The following applies: human, MRC-5 cells; MRC-5, HCMV AD169 assay. On the procedure: MRC-5 cells ((ATCC CCL-171) embryonal lung fibroblast, diploid, human) were used in plaque reduction assays with HCMV Strain AD169 (ATCC VR-538) and in cytoprotection assays with Rhinovirus strain 1B. They were grown in EMEM supplemented with 10% FBS, 0.1 mM non-essential amino acids, 1.0 mM sodium pyruvate, 2.0 mM L-Glutamine, 100 units/ml Penicillin and 100 μg/ml Streptomycin.
HCMV Plaque Reduction Assay: MRC-5 cells were seeded at 75,000 cells/well in 24 well plates. The plates were incubated overnight at 37° C. and 5% CO2. The following day, media was aspirated and approximately 100 plaque forming units (pfu) of HCMV AD169 was added to 21 wells of each plate in a volume of 200 μL of assay medium (MRC-5 growth medium containing 2% FBS rather than 10% FBS). The remaining three wells of each plate served as cellular control wells and received 200 μL of assay medium without virus. […] After a six day incubation period, cell viability was determined using CellTiter 96 Aqueous One Solution (Promega Corporation). […] Adhesive plate sealers were used in place of the lids, the sealed plates were inverted several times to mix the soluble formazan product and the plate was read spectrophotometrically at 490 and 650 nm with a Molecular Devices Vmax plate reader. […] A therapeutic (selectivity) index (TI) for each active compound was determined by dividing the TC50 by the IC50.

Another data set deals with Adenovirus Type 1. In words: Cytoprotection assay, Adenovirus. Format: cell-based. The following applies: Adenovirus Type I, HeLa.
A short description of data set [2]: Compound cytotoxicity in HIV cytoprotection assay (XTT). The format is cell-based. Conditions: human, MT-4 cells; MT-4, HIV-1 assay. On the procedure:
MT-4 cells ((Catalog #120) Human T-cell Leukemia) were obtained from the NIH AIDS Reference Reagent Program and were used in cytoprotection assays with HIV-1 Strain IIIB (Southern Research). They were grown in RPMI-1640 medium supplemented with 10% FBS.
Cytoprotection Assay for HIV:_MT-4 cells were sub-cultured one day prior to testing. Cells were plated in 96 well cell culture plates at a seeding density of 6×10^5 cells/ml (3×10^4 cells/well). […] Virus and cells were mixed in the presence of serial dilutions of test compound and incubated for 5 days at 37° C., 5% CO2. Each assay plate contained cell control wells (cells only), virus control wells (cells plus virus), compound toxicity control wells (cells plus compound only) as well as experimental wells (compound plus cells plus virus). Cytoprotection and compound cytotoxicity were assessed by XTT assay (Cat#11-465-015-001, Roche Diagnostics). The plates were read spectrophotometrically at 450/650 nm with a Molecular Devices SpectraMax M2 plate reader. The percent reduction in viral CPE was determined and reported as IC50, CC50 and a calculated TI. Samples were evaluated for antiviral efficacy and cytotoxicity with triplicate measurements using 9 concentrations at 2-fold dilutions. Each assay included Raltegravir (MK0518) as an antiviral positive control compound.

Data set [3] in a line: Compound cytotoxicity in cytoprotection assay (MTS), MDBK. The following applies: cow, MDBK cells.
In data set [4] the test system is Yellow Fever Virus strain 17D. In words: microbe, parasite or virus in culture. The format is cell-based. The following applies: HeLa.
The nature of data set [5]: Compound cytotoxicity in cytoprotection assay (MTS), MRC-5. The following applies: human, MRC-5 cells.
The nature of data set [6]: Protide stability in normal plasma, human. Format: in vitro ADME. The following applies: 37° C. As for the experimental part:
Selected nucleoside 5′-phosphoramidates were examined for stability in human, cynomolgous monkey, rat and mouse plasma at 37° C. at both 30 min and 90 min time points.
Protide Stability in Normal Plasma: Plasma samples were prepared for analysis as follows. 50 μl of each test sample were distributed a 96-well V-bottom plate. 200 μl of acetonitrile containing 10 ng/ml of an internal standard was added to each plasma sample. The precipitated samples were centrifuged at 2500 rpm, 4° C. for 20 minutes in a Sorvall RT6000S centrifuge (Thermo Scientific, Waltham Mass.) and 100 μl of supernatant from each sample was transferred into a 96 deep well plate followed by the addition of 100 μl H2O to each sample. Samples were covered, mixed well by vortexing and maintained at 2-8° C. before and during analysis. 15 μl of each test sample was analyzed for protide concentrations by liquid chromatography coupled to tandem mass spectrometry (LC-MS/MS). Liquid chromatography was performed with an Agilent 1100 Series HPLC system equipped with a Synergi 4 μm Polar-RP, 30×2.0 mm column (Phenomenex, Torrance, Calif.). The HPLC system was coupled to an API 4000 triple quadrupole mass spectrometer (Applied Biosystems, Framingham, Mass.). Mass spectrometry was performed in positive ion mode and data was analyzed using Analyst® v1.4.2 software (Applied Biosystems, Framingham, Mass.). Data was presented as the percentage of compound recovered as compared to the 0 time point control.

The subject of the next data set is Rhinovirus strain 1B. The data set is described as follows: Cytoprotection assay, Rhinovirus. Format: cell-based. Conditions: Enterovirus, MRC5.
Data set [7] has as its system Coxsackie virus strain B4. The data set is described as follows: Cytoprotection assay, Coxsackie virus. Conditions: Enterovirus B, B4, Vero. The format is cell-based.
A further data set in a line: in vitro. Conditions: African green monkey.

`COc1nc(N)nc2c1ncn2C1O[C@H](COP(=O)(N[C@@H](C)C(=O)OCC(C)(C)C)Oc2cccc3ccccc23)[C@@H](O)[C@@]1(C)O` (some centres unmarked) [Example 20] displayed a CC50 at 6 days in data set [1] of 1570 nM. Moreover, the EC50 in the data set on Adenovirus Type 1 is above 10 µM; in data set [4], 418 nM; with Rhinovirus strain 1B, above 10 µM; in data set [7] it was above 10 µM. In data set [2], this compound yielded a CC50 at 5 days of 11 µM. Moreover, the figures for the CC50 at 7 days in data set [3] and in [5] were above 10 µM and 3.08 µM, respectively. The results for the “% Compound Remaining Compared to %100 Acetonitrile Control” value in [6] (30 min) and in data set [6] (1.5 h) were 94.0% and 101.5%, respectively. The compound also came in with a CC50 in the data set “in vitro” above 10 µM.

(Values after US8759318B2, “Phosphoramidate derivatives of guanosine nucleoside compounds for treatment of viral infections” (Inhibitex, Inc., priority 2009, dated 2014).)
